A short description of series [1]: Artificial membrane permeability assay (PAMPA) (Example 36). It is filed as in vitro ADME.
Experimental: In order to test the ability SDC-TRAP molecules of the invention to enter cells, an artificial membrane permeability assay (“PAMPA”) was used. […] LC/MS was used in conjunction with PAMPA assays to determine the ability of the SDC-TRAP molecules of the invention to permeate cells.
Pre-coated PAMPA plates were warmed to room temperature for at least 30 minutes prior to adding assay components.
Stock solutions were prepared with the SDC-TRAP molecules to be tested. In order to make a working solution, either 50 μL of 100 μM Stock in DMSO+950 μL of PBS or 50 μL of 200 μM stock was added to 96 deep well plate, resulting in a 5 μM final concentration or a 10 μM final concentration, respectively. 300 μL of the working solution containing each compound to be tested was added to the appropriate well of a donor PAMPA plate. 200 μL of PBS was added into the corresponding wells of an acceptor PAMPA plates.
The acceptor plate was lowered onto the donor plate and allowed to incubate for five hours. After five hours, a 50 μL aliquot was removed from each well of each plate and added into a new 96 deep-well plate.
100 μL of methanol containing an internal standard was added to each aliquot and analyzed by LC/MS. The internal standard was 150 ng/ml SDC-TRAP-0002.
In order to calculate the permeability for each SDC-TRAP molecule and the control molecules, the following formula was used:
Series [2] can be described thus: Stability in mouse plasma (Example 5). It is filed as in vitro ADME. As for the experimental part: (§1) This example illustrates a method for assessing the stability of SDC-TRAP of the invention in human and mouse plasma.
(§2) SDC-TRAP-0022 and SDC-TRAP-0028 were incubated in human and mouse plasma for 2 h at 37° C. and assayed for integrity at 0.25, 0.5, 1 and 2 h. The values reported below are the remaining of the parent compound at the end of the 2 h incubation period.

The nature of series [3]: Stability in human plasma (Example 5). The series is classed as in vitro ADME. As for the experimental part:
as §1, §2

In series [4] the test system is HER2. The experiment in a line: HER2 degradation in BT-474 cells (Example 3, Western blot / in-cell imaging). It is filed as cell-based, human. Conditions: Homo sapiens.
Experimental: BT-474 cells are plated in the interior 60 wells of a 96 well black clear bottom plate (20,000 cells/well) in DMEM medium, with DMEM media in the surrounding 36 wells, and incubated at 37° C. with 5% CO2 overnight. On the second day, concentration response curve source plates are produced (10 point, 3-fold dilution of compounds in DMSO) followed by a 1:30 dilution in an intermediate dilution plate containing DMEM. Compound is transferred from the intermediate plate to the cell plate at a dilution of 1:10.
Cells are then fixed in 4% phosphate-buffered paraformaldehyde for 30 minutes at room temperature and then permeabilized by washing five times with 0.1% Triton X-100 in PBS for 5 minutes at room temperature on a shaker. […] Cells are washed 5 times with 0.1% Tween-20 in PBS for 5 minutes at room temperature on a shaker and imaged on a LI-COR Odyssey imaging station. The raw data is normalized to DRAQ5 and the HER2 EC50 is calculated using XLfit™.
Series [5] relates to HER2. As to the kind of experiment: HER2 degradation assay with BT-474 cell line (Example 12, FACS). It is filed as cell-based. Particulars: Homo sapiens.
The subject of series [6] is MCF-7 breast cancer cells. As to the kind of experiment: Mouse xenograft efficacy in an MCF-7 breast cancer model. It is filed as in vivo. Particulars: 150 or 100 mg/kg/1×wk; FIG. 8. How it is done: Mouse Xenograft Efficacy Data in an MCF-7 Breast Cancer Model
MCF-7 breast cancer cells were purchased from ATCC. […] Fetal bovine serum was then added to the medium. The final concentration of fetal bovine serum was 10%. Cells were cultured at 37° C. and 5% CO2.
Mice that were not put on treatment were euthanized. Animals were sourced through CRL (Wilmington, Mass.).

For series [7] the following is noted: mouse, in vivo.
Experimental: (§3) Tissue Distribution Extraction Procedure for SDC-TRAP Tumor Samples
(§4) A 150 ng/mL solution of SDC-TRAP-0002 in methanol was prepared using an internal spiking solution (500 μg/mL SDC-TRAP-0002 in DMSO). Using the 10 mM stock solutions of the SDC-TRAP molecule and its Hsp90i binding moiety and effector moiety in DMSO, spiking solutions were prepared at 0.025, 0.05, 0.1, 0.5, 1, 5, 10, 50, 100, 250, and 500 μM in DMSO. 5 μL of each spiking solution was added to a 96-deep well plate.
(§5) Quality control standards were prepared from 5 μL of 0.1, 1, and 10 μM calibration standard spiking solution added in triplicate into 96-deep well plate and adding 50 μL of matrix (plasma or homogenized tumor).
(§6) To prepare test samples, test plasma was diluted as needed using blank plasma. Tumor samples were pulverized in liquid nitrogen, weighed, and homogenized in PBS at 5× volume to sample weight. 50 μL of unknown plasma or homogenized tumor sample was mixed with 5 μL of DMSO. The samples were extracted by precipitating calibration standards, QC standards, and unknown samples with 200 μL of internal standard solution. The samples were mixed by vortex at room temperature for approximately 1.5 minutes, then centrifuge at 2-8° C. 150 μL of supernatant was collected and 25 μL of water added. Samples were mixed and analyzed by LC-MS/MS.
(§7) Samples of plasma, heart and tumor were excised from a euthanized mouse, homogenized in PBS at 5 times tissue weight and diluted in 5 μL DMSO/50 μL sample. Prior to analysis, 55 μL samples and calibration standards were precipitated in 200 μL methanol in 96-well plates. Samples were mixed on a vortex mixer for 1.5 minutes at 1500 rpm at room temperature, then centrifuged at 4400 rpm for 10 minutes at 8° C. 150 μL of each supernatant was transferred to a well of a new 96-well plate, and 25 μL of water was added and mixed with the sample. […] For the analysis of samples from female SCID mice, a gradient of solvent A (water/0.1% formic acid) and B (acetonitrile/0.1% formic acid) was used as in Table A below.
A short description of another series: in vivo. Conditions: mouse.
The test system of series [8] is human urinary bladder cancer cell line RT-112. The experiment in a line: Cytotoxicity assay with cancer cell lines, RT-112 (Example 13). The series is classed as cell-based. Particulars: RT-112, 72 h, read-out: Cytotoxicity (IC50, nM) RT-112.
Experimental: (§8) Cytotoxicity Assay with Cancer Cell Lines
(§9) Cytotoxicity of SDC-TRAP molecules was determined in three cancer cell lines. […] 80 μL of CellTiter-Glo was added to each well, followed by room temperature incubation in the dark for 15 minutes. Cell was determined by luminescence. IC50 was calculated using XLfit™ software.
Series [9] has as its system human breast cancer cell line BT-474. As to the kind of experiment: Cytotoxicity assay with cancer cell lines, BT-474 (Example 13). The series is classed as cell-based. Particulars: BT-474, 72 h, read-out: Cytotoxicity (IC50, nM) BT-474.
Experimental: as §8, §9
Series [10] can be described thus: Mouse plasma stability (Examples 16-18). The series is classed as in vitro ADME.
Experimental: Plasma Stability Protocol for SDC-TRAP Compounds
This solution was used to precipitate all plasma samples in the study. 200 μL was pipetted into a 96 deepwell plate over dry ice. 10 μL of 1 mM stock in DMSO was added to a 1.5 mL microfuge tube, then 990 μL of plasma. Samples were mixed by vortex, then 50 μL of each sample was added in triplicate to a 96-well plate containing internal standard solution. This was designated the 0 hour time point sample. 250 μL of the remaining plasma sample was added to each of four 96 deepwell plates—one per time point. Samples were incubated at 37° C. with gentle shaking for 0.25, 0.5, and 1 hour. After each time point, one plate of each sample was removed from the shaker and placed on wet ice for approximately 2 minutes. 50 μL plasma aliquots (in triplicate) were added to the deepwell plate containing internal standard solution. After the last time point was extracted, the 96 deepwell plate was vortexed, then centrifuged at 2-8° C. 150 μL of supernatant was collected and 25 μL of water was added. Samples were mixed and analyzed by LC-MS/MS.
The stability of seven SDC-TRAP types in mouse plasma was measured as follows. […] Each sample was mixed and divided into 250 μL aliquots, each representing time points 0, 15 minutes, 30 minutes or 1 hour. […]
Series [11] deals with human urinary bladder cancer cell line SW780. As to the kind of experiment: Cytotoxicity assay with cancer cell lines, SW780 (Example 13). The series is classed as cell-based. Particulars: SW780, 72 h, read-out: Cytotoxicity (IC50, nM) SW-780.
Experimental: as §8, §9
Series [12] can be described thus: Stability in cell culture media (Example 18). The series is classed as in vitro ADME. As for the experimental part:
SDC-TRAP Stability in Mouse Plasma and Cell Culture Media
Mouse plasma samples were prepared according to Example 16.

The nature of series [13]: Tissue distribution of ganetespib in female CD-1 nu/nu mice bearing RERF human NSCLC xenografts. Particulars: 24 hr after 50 mg/kg IV. The series is classed as in vivo, mouse. The source says:
Tissue distribution of ganetespib in female CD-1 nu/nu mice bearing RERF human NSCLC xenografts
To confirm the distribution of ganetespib in blood, livers, kidneys, brains, hearts, lungs and tumors after IV administration of ganetespib to female CD-1 nu/nu mice bearing RERF human NSCLC xenografts, and to examine metabolic profiles of ganetespib in plasma, red blood cells, and above tissues.
Animals: female CD-1 nu/nu mice bearing RERF human NSCLC xenografts (N=3/group)
Formulation: 10% DMSO, 18% Cremophor RH40, 3.6% dextrose solution (DRD)
Bleeding time points: 5 min, 6, 24 hr
Collected tissues: blood (plasma and red blood cells (RBC)), liver, kidneys, brain, heart, lung, tumor
Protein precipitation: 50 μL of 10 times diluted plasma or RBC+150 μL ACN (10 mM NH4OAc), vortexed and centrifuged at 10000 rpm for 8 min; 150 μL supernatant+150 μL water (10 mM NH4OAc)
Protein precipitation: 100 μL homogenized tissue (1:3 tissue: PBS buffer)+100 μL ACN (10 mM NH4OAc), vortexed and centrifuged at 10000 rpm for 8 min Bioanalysis

The mark [14] stands for this setting: BT-474 cells, read-out: HER2 (IC50).
Setting [15] is: BT-474, SDC-TRAPs of the 43rd table.

pIC50: −log10 of the molar value.

Experimental for in vivo: as §3, §4, §5, §6, §7

The molecule `CC(C)c1cc(-c2nnc(O)n2-c2ccc3c(ccn3CCNC(=O)CCCC[C@@H]3SCC4NC(=O)NC43)c2)c(O)cc1O` (stereo in doubt) [SDC-TRAP-0233, N-(2-(5-(3-(2,4-dihydroxy-5-isopropylphenyl)-5-hydroxy-4H-1,2,4-triazol-4-yl)-1H-indol-1-yl)ethyl)-5-((3 aS,4S,6aR)-2-oxohexahydro-1H-thieno[3,4-d]imidazol-4-yl)pentanamide] came in with a Papp at 5 h in series [1] (incubation 5 h, the 55th table) of 0.021 ×10⁻⁶ cm/s.

With `CCc1c2c(nc3ccc(OC(=O)N(C)CCn4ccc5cc(-n6c(O)nnc6-c6cc(C(C)C)c(O)cc6O)ccc54)cc13)-c1cc3c(c(=O)n1C2)COC(=O)C3(O)CC` (stereo not shown) [SDC-TRAP-0022, 4,11-diethyl-4-hydroxy-3,14-dioxo-3,4,12,14-tetrahydro-1H-pyrano[3′,4′:6,7]indolizino[1,2-b]quinolin-9-yl (2-(5-(3-(2,4-dihydroxy-5-isopropylphenyl)-5-hydroxy-4H-1,2,4-triazol-4-yl)-1H-indol-1-yl)ethyl)(methyl)carbamate], the “% Remaining 2 h (37° C.) MO” value is 32% in series [2] (mouse plasma, 1 μM) and 31% in [2] (mouse plasma, 10 μM). Further, the “% Remaining 2 h (37° C.) HU” value in series [3] (human plasma, 1 μM) came out at 29%; in [3] (human plasma, 10 μM), 30%.

On to `CCc1c2c(nc3ccc(OCC(=O)N(C)CCn4ccc5cc(-n6c(O)nnc6-c6cc(C(C)C)c(O)cc6O)ccc54)cc13)-c1cc3c(c(=O)n1C2)COC(=O)C3(O)CC` (stereo not shown) [SDC-TRAP-0027, 2-((4,11-diethyl-4-hydroxy-3,14-dioxo-3,4,12,14-tetrahydro-1H-pyrano[3′,4′:6,7]indolizino[1,2-b]quinolin-9-yl)oxy)-N-(2-(5-(3-(2,4-dihydroxy-5-isopropylphenyl)-5-hydroxy-4H-1,2,4-triazol-4-yl)-1H-indol-1-yl)ethyl)-N-methylacetamide], for which the pIC50 with HER2 [4] (setting [14]) and in the series on HER2 [5] (setting [15]) was less than 5.30 throughout.

As for `CCc1c2c(nc3ccc(OCC(=O)N(C)CCOCCn4ccc5cc(-n6c(O)nnc6-c6cc(C(C)C)c(O)cc6O)ccc54)cc13)-c1cc3c(c(=O)n1C2)COC(=O)C3(O)CC` (stereo not shown) [SDC-TRAP-0028, 2-((4,11-diethyl-4-hydroxy-3,14-dioxo-3,4,12,14-tetrahydro-1H-pyrano[3′,4′:6,7]indolizino[12-b]quinolin-9-yl)oxy)-N-(2-(2-(5-(3-(2,4-dihydroxy-5-isopropylphenyl)-5-hydroxy-4H-1,2,4-triazol-4-yl)-1H-indol-1-yl)ethoxy)ethyl)-N-methylacetamide], the pIC50 with HER2 [4] (setting [14]) and in the series on HER2 [5] (setting [15]) was less than 5.30 throughout. The “% Remaining 2 h (37° C.) MO” value is given as 53% in series [2] (mouse, plasma, 2 h, 1 μM) and 47% in series [2] (mouse, plasma, 2 h, 10 μM). The “% Remaining 2 h (37° C.) HU” value is 51% in series [3] (human, plasma, 2 h, 1 μM) and 65% in series [3] (human, plasma, 2 h, 10 μM).

For the molecule `CC(C)c1cc(-c2nnc(O)n2-c2ccc3c(ccn3CCOCCN(C)C(=O)CCC(=O)Nc3cccc4c3CN(C3CCC(=O)NC3=O)C4=O)c2)c(O)cc1O` (stereo not shown) [SDC-TRAP-0033, N1-(2-(2-(5-(3-(2,4-dihydroxy-5-isopropylphenyl)-5-hydroxy-4H-1,2,4-triazol-4-yl)-1H-indol-1-yl)ethoxy)ethyl)-N4-(2-(2,6-dioxopiperidin-3-yl)-1-oxoisoindolin-4-yl)-N1-methylsuccinamide], the pIC50 in the series on HER2 [4] (setting [14]) and in the series with HER2 [5] (BT-474 cells) was less than 5.30 in each case.

Regarding `CC(C)c1cc(-c2nnc(O)n2-c2ccc(CN3CCN(C(=O)CCCC(=O)Nc4cccc5c4CN(C4CCC(=O)NC4=O)C5=O)CC3)cc2)c(O)cc1O` (stereo not shown) [SDC-TRAP-0041, 5-(4-(4-(3-(2,4-dihydroxy-5-isopropylphenyl)-5-hydroxy-4H-1,2,4-triazol-4-yl)benzyl)piperazin-1-yl)-N-(2-(2,6-dioxopiperidin-3-yl)-1-oxoisoindolin-4-yl)-5-oxopentanamide], the pIC50 in the series on HER2 [4] (setting [14]) is less than 5.30; in the series with HER2 [5] (BT-474 cells), less than 5.00.

Regarding `CCc1c2c(nc3ccc(OC(=O)N4CCC(CCn5ccc6cc(-n7c(O)nnc7-c7cc(C(C)C)c(O)cc7O)ccc65)CC4)cc13)-c1cc3c(c(=O)n1C2)COC(=O)[C@]3(O)CC` [SDC-TRAP-0063, 4,11-diethyl-4-hydroxy-3,14-dioxo-3,4,12,14-tetrahydro-1H-pyrano[3′,4′:6,7]indolizino[1,2-b]quinolin-9-yl 4-(2-(5-(3-(2,4-dihydroxy-5-isopropylphenyl)-5-hydroxy-4H-1,2,4-triazol-4-yl)-1H-indol-1-yl)ethyl)piperidine-1-carboxylate], the “tumor growth suppression (tumor volume)” value in series [6] is “greater tumor growth suppression than effector moiety irinotecan alone”. In addition, in [7], the “tumor targeting (tissue distribution, in words)” value was “selectively targets and accumulates in tumor cells”. In the series “in vivo” (Plasma Conc.), this molecule returned a concentration at 6 h of 1690 nM and a concentration at 24 h of 6.75 nM. Besides, in “in vivo” (Tumor/Plasma Ratio), the Kp at 6 h stood at 0.958, the Kp at 24 h is 30.1 and the Kp at […] is 0.0122.

On to `CC(C)c1cc(-c2nnc(O)n2-c2ccc3c(ccn3CCNC(=O)CCCCCNC(=O)CCCC[C@H]3SC[C@H]4NC(=O)N[C@H]43)c2)c(O)cc1O` [SDC-TRAP-0234, N-(2-(5-(3-(2,4-dihydroxy-5-isopropylphenyl)-5-hydroxy-4H-1,2,4-triazol-4-yl)-1H-indol-1-yl)ethyl)-6-(5-((3aR,4R,6aS)-2-oxohexahydro-1H-thieno[3,4-d]imidazol-4-yl)pentanamido)hexanamide], for which, in series [1] (incubation 5 h, the 55th table), the “Mass Retention” value is on record as 9.56% and the Papp at 5 h was determined as 0.0123 ×10⁻⁶ cm/s.

In the case of `CCc1c2c(cc3ccc(O)cc13)-c1cc3c(c(=O)n1C2)COC(=O)[C@]3(O)CC` [SN-38], the Kp at 1 h in the series “in vivo” (Tumor/Plasma Ratio) was found to be 0.07. Also, the Kp at […] in “in vivo” (Tumor/Plasma Ratio) was 0.01. Besides, the IC50 in series [8] is less than 10 nM; in series [9], more than 10000 nM; in [11], 38 nM. The “Mouse (10 μM) % Remaining 1 h (37° C.)*” value in series [10] is given as 64%. The “Mass Retention” value in [1] (incubation 5 h, the 55th table) is on record as 38.2%; in [1] (same protocol, the 56th table), 46.6%. Besides, the Papp at 5 h in series [1] (incubation 5 h, the 55th table) stood at 0.643 ×10⁻⁶ cm/s; in series [1] (same protocol, the 56th table) it was 1.87 ×10⁻⁶ cm/s. In addition, the “Media (5 μM) % Remaining 1 h (37° C.)*” value in series [12] (1 h) was determined as 82%. In addition, the “Media (5 μM) % Remaining 19 h (37° C.)” value in series [12] (19 h) was 52%.

Regarding `CC(C)c1cc(-c2n[nH]c(=O)n2-c2ccc3c(ccn3C)c2)c(O)cc1O` [ganetespib, reference compound], the pIC50 in the series on HER2 [4] (BT-474, read-out: IC50 of in vitro HER2 assays) was approximately 7.52. In addition, the “Concentration of ganetespib in plasma” value in [13] is “<LLOQ”.

The values above are taken from US9956293B2, “Targeted therapeutics” (Madrigal Pharmaceuticals, Inc., priority 2014, dated 2018).
